Results from US20040067904A1, “Gene therapy for prostate cancer: sensibilization of cells to dna damaging drugs and radiation” (priority 2003, published 2004).

Columns and labels:
LNCaP cells = test: Annexin V cell death assay (flow cytometry); assay type: cell-based, human; settings: parental LNCaP cells and un-induced LNCaP-DBD sublines; etoposide 10 μM; 24 h
Procedure: Surface expression of phosphadtidyl serine was determined by Annexin V staining (Trevigen) according to the manufacturer's recommendations. Briefly, LNCaP cells (2-5×10^5) were harvested, washed in PBS and exposed to FITC-labeled Annexin V. To exclude staining of phosphadtidyl serine on the inner surface of the cell membrane, indicative of cytoplasmic membrane disintegration, cells were counterstained with propidium iodite. FITC-Annexin V and propidium iodite staining was determined using a FACStar Plus flow cytometer (Becton Dickinson FACS System). Apoptotic cells were defined as FITC positive and PI negative.

plasmid DNA fragments = test: Atomic force microscopy of PARP / PARP-DBD interaction with DNA; assay type: binding
Procedure: DNA samples or PARP-DNA binding reaction product in Mg^2+containing buffer were deposited on an […] mica surface, allowed to adsorb for 1 min, rinsed with deionized water, and dried in a gentle nitrogen flow. The AFM images were obtained using a NanoScope IIIa instrument equipped with E-scanner (Digital Instruments, Santa Barbara, Calif.) operating in a tapping mode in air as described (Smulson et al., Cancer Res., 58: 3495-3498 (1998)). The tapping frequency of the 125 μm silicon cantilever was 300-400 KHz and the nominal scanning rate was set at 1-2 Hz. No less than 150 uncomplexed DNA molecules and 100 of PARP-DNA complexes were analyzed in each experiment.

[1] = test system: LNCaP cells stably transfected with pPSA (e/p)-DBD/F; test: Androgen-regulated PARP-DBD expression (Western blot, RT-PCR, in situ immunofluorescence) in stably transfected LNCaP cells; assay type: cell-based, human; settings: R1881 0-10 nM, 24 hours, charcoal-stripped serum for seven days
Procedure: The androgen responsive prostate carcinoma LNCaP and androgen independent PC-3 cell lines were obtained from American Type Culture Collection (Manassas, Va.) and maintained by serial passage in DMEM supplemented with 10% fetal bovine serum, 100 units/ml penicillin, and 100 μg/ml streptomycin at 37° C. in an atmosphere of 5% CO2 in air. Cells subjected to androgen stimulation tests were maintained in media with 10% charcoal-stripped fetal bovine serum for seven days before the addition of synthetic androgen R1881 (Perkin Elmer Life Science). […]
RNA was isolated from cells using TRIzol Reagent (Gibco) according to manufacturer's protocol. […] The amplified RT-PCR products were analyzed by 1% agarose gel electrophoresis, visualized by ethidium bromide staining and photographed under UV illumination.
Immunodetection of PARP-DBD Flag-fusion protein in human prostate carcinoma cells was performed as previously described (Soldatenkov et al., Cancer J Sci. Am., 3: 13-20 (1997)). […] Insoluble material was removed by centrifugation at […] for 30 min at 16,000×g and protein concentrations were determined using the “Micro BCA protein assay” (Pierce). […] Signals were detected using the enhanced chemiluminescence system (Amersham). […]

## COc1cc([C@@H]2c3cc4c(cc3[C@@H](O[C@@H]3O[C@@H]5CO[C@@H](C)O[C@H]5[C@H](O)[C@H]3O)[C@H]3COC(=O)[C@H]23)OCO4)cc(OC)c1O [etoposide]
LNCaP cells
  annexin V-binding activity (early apoptotic changes): only modest increase

## Poly(ADP-ribose) polymerase [recombinant full length PARP]
Plasmid DNA fragments; absence of NAD+
  binding to DNA fragments (AFM): bound plasmid DNA fragments and linked them into chainlike structures
Plasmid DNA fragments; presence of NAD+
  binding to DNA fragments (AFM): dissociated from the DNA fragments

## C[C@]1(O)CC[C@H]2[C@@H]3CCC4=CC(=O)CCC4=C3C=C[C@@]21C [R1881]
[1]
  stimulation of PARP-DBD expression at levels of mRNA and protein: dose-dependent stimulation
